Measured values published in publication PMC7411736, “Effects of Sesamin, the Major Furofuran Lignan of Sesame Oil, on the Amplitude and Gating of Voltage-Gated Na^+ and K^+ Currents” (Molecules, 2020).
Like-named read-outs stand apart in the source and are kept apart here.

Tests used:
Format in all cases: cell-based, rat
[1] = tested on: voltage-gated Na+ currents (INa) in pituitary GH3 cells; assay: Whole-cell patch-clamp of voltage-gated Na+ current evoked by depolarization from −80 to −10 mV; conditions: for Effect on SSM-induced inhibition of peak INa: 10 μM added in continued presence of SSM (3 μM); for Effect on peak amplitude of INa: −80 to −10 mV (Figure 2); for IC50: GH3 cells, depolarization −80 to −10 mV
Experimental: In an initial step of the experiments, we examined the effects of SSM on the amplitude and gating of INa in response to rapid membrane depolarization. Cells were bathed in Ca^2+-free Tyrode’s solution containing 10 mM tetraethylammonium chloride (TEA) and the recording pipette was backfilled with a Cs^+-containing solution. […] For example, when rapid membrane depolarization from −80 to −10 mV with a duration of 40 msec was delivered (indicated in the inset of Figure 1A) to evoke INa, the addition of 3 μM SSM caused a decrease in the peak or sustained amplitude of INa to 139 ± 11 pA (n = 11, P < 0.05) or 12 ± 3 pA (n = 11, P < 0.05), respectively, from the control values of 248 ± 18 or 21 ± 2 pA (n = 11). After the removal of SSM, the peak and sustained amplitude returned to 232 ± 16 or 19 ± 2 pA (n = 7, P < 0.05).
The bath solution (i.e., a HEPES-buffered normal Tyrode’s solution) utilized in the present study was composed of 136 mM NaCl, 5.4 mM KCl, 1.8 mM CaCl2, 0.53 mM MgCl2, 5.5 mM glucose, and 5.5 mM HEPES titrated with NaOH to pH 7.4. To measure macroscopic IK(DR) and Ih, we filled patch pipettes by using a solution containing 130 mM K-aspartate, 20 mM KCl, 1 mM KH2PO4, 1 mM MgCl2, 3 mM Na2ATP, 0.1 mM Na2GTP, 0.1 mM EGTA, and 5 mM HEPES adjusted with KOH to pH 7.2. To record INa and INa(R), we substituted K^+ ions in the pipette solution inside the electrode for equmolar Cs^+ ions and the pH value in the solution was adjusted to 7.2 with CsOH. To measure IK(erg) and IK(M), cells were bathed in a high-K^+ solution containing 145 mM KCl, 0.53 mM MgCl2, and 5 mM HEPES-KOH buffer, pH 7.4. All solutions were prepared using deionized water from a Millipore Milli-Q purification system (ρ = 18 MΩ·cm) (Merck, Ltd., Taipei, Taiwan). The pipette solution and culture medium were filtered on the day of use with a sterile Acrodisc® syringe filter with a 0.2-μm Supor® membrane (Bio-Check; New Taipei City, Taiwan).
The pituitary adenomatous cell line, GH3, was acquired from the Bioresource Collection and Research Center ((BCRC-60015, https://catalog.bcrc.firdi.org.tw/BcrcContent?bid=60015); Hsinchu, Taiwan). Cells were maintained in Ham’s F-12 medium supplemented with 2.5% fetal bovine serum (v/v), 15% horse serum (v/v), and 2 mM L-glutamine in a humidified environment of 5% CO2/95% air. When well differentiated, GH3 cells were transferred to a serum- and Ca^2+-free medium. Electrical recordings were performed 5 or 6 days after cells were cultured with 60–80% confluence.
On the day of each experiment, cells were dispersed with a 1% trypsin/EDTA solution and a few drops of cell suspension were rapidly placed in a custom-built recording chamber mounted on the stage of an inverted DM-IL microscope (Leica; Major Instruments, Kaohsiung, Taiwan). They were immersed at room temperature (20–25 °C) in normal Tyrode’s solution, the composition of which is elaborated above. We measured ion currents in the whole-cell model of a standard patch-clamp technique with dynamic adaptive suctioning (i.e., decremental change of suction pressure in response to a progressive increase in the electrode resistance), with the aid of an RK-400 (Bio-Logic, Claix, France) or an Axopatch-200B (Molecular Devices, Sunnyvale, CA) patch amplifier. The microelectrodes used were prepared from Kimax-51 borosilicate capillaries with a 1.5-mm outer diameter (#34500; Kimble; Dogger, New Taipei City, Taiwan) by using a PP-830 vertical puller (Narishige, Taiwan Instrument, Taipei, Taiwan). The recording electrodes had their tip resistances, which ranged between 3 and 5 MΩ, as they were filled up with the different internal solutions elaborated above. During the measurements, the recorded area on the vibration-free table was shielded by using a Faraday cage (Scitech, Seoul, South Korea). […]

[2] = tested on: hyperpolarization-activated cation currents (Ih) in GH3 cells; assay: Whole-cell patch-clamp of hyperpolarization-activated cation current (−40 to −110 mV)
Experimental: In the following experiments, we further studied whether the presence of SSM could perturb another type of inwardly directed current, i.e., Ih. Cells were exposed to Ca^2+-free Tyrode’s solution containing 1 μM TTX and the pipette was filled with K^+-containing solution. As the hyperpolarizing command pulse from −40 to −110 mV with a duration of 2 sec was delivered, Ih with a slowly activating property was robustly evoked, as observed previously. […] Cilobradine has recently been reported to decrease Ih amplitude, as well as to alter activation kinetics present in different types of excitable cells.
(§1) The bath solution (i.e., a HEPES-buffered normal Tyrode’s solution) utilized in the present study was composed of 136 mM NaCl, 5.4 mM KCl, 1.8 mM CaCl2, 0.53 mM MgCl2, 5.5 mM glucose, and 5.5 mM HEPES titrated with NaOH to pH 7.4. To measure macroscopic IK(DR) and Ih, we filled patch pipettes by using a solution containing 130 mM K-aspartate, 20 mM KCl, 1 mM KH2PO4, 1 mM MgCl2, 3 mM Na2ATP, 0.1 mM Na2GTP, 0.1 mM EGTA, and 5 mM HEPES adjusted with KOH to pH 7.2. To record INa and INa(R), we substituted K^+ ions in the pipette solution inside the electrode for equmolar Cs^+ ions and the pH value in the solution was adjusted to 7.2 with CsOH. […]
(§2) On the day of each experiment, cells were dispersed with a 1% trypsin/EDTA solution and a few drops of cell suspension were rapidly placed in a custom-built recording chamber mounted on the stage of an inverted DM-IL microscope (Leica; Major Instruments, Kaohsiung, Taiwan). […] We measured ion currents in the whole-cell model of a standard patch-clamp technique with dynamic adaptive suctioning (i.e., decremental change of suction pressure in response to a progressive increase in the electrode resistance), with the aid of an RK-400 (Bio-Logic, Claix, France) or an Axopatch-200B (Molecular Devices, Sunnyvale, CA) patch amplifier. […] During the measurements, the recorded area on the vibration-free table was shielded by using a Faraday cage (Scitech, Seoul, South Korea). […]

[3] = tested on: M-type K+ currents (IK(M)) in GH3 cells; assay: Whole-cell patch-clamp of M-type K+ current (depolarization from −50 to −10 mV, 1 sec); conditions: amplitude at end of pulse, read-out: IC50 for decrease of IK
Excerpt: The following experiments were further undertaken to determine whether the addition of SSM could exert any perturbations on the amplitude or gating of IK(M) in these cells. Cells were bathed in high-K^+, Ca^2+-free solution, and the recording pipette was then filled with K^+-enriched solution. Figure 5 illustrates that the presence of SSM can result in a concentration-dependent depression in the amplitude of IK(M) during step depolarization.
The bath solution (i.e., a HEPES-buffered normal Tyrode’s solution) utilized in the present study was composed of 136 mM NaCl, 5.4 mM KCl, 1.8 mM CaCl2, 0.53 mM MgCl2, 5.5 mM glucose, and 5.5 mM HEPES titrated with NaOH to pH 7.4. […]
On the day of each experiment, cells were dispersed with a 1% trypsin/EDTA solution and a few drops of cell suspension were rapidly placed in a custom-built recording chamber mounted on the stage of an inverted DM-IL microscope (Leica; Major Instruments, Kaohsiung, Taiwan). […] We measured ion currents in the whole-cell model of a standard patch-clamp technique with dynamic adaptive suctioning (i.e., decremental change of suction pressure in response to a progressive increase in the electrode resistance), with the aid of an RK-400 (Bio-Logic, Claix, France) or an Axopatch-200B (Molecular Devices, Sunnyvale, CA) patch amplifier. […]

[4] = tested on: resurgent INa (INa(R)) in GH3 cells; assay: Whole-cell patch-clamp of resurgent INa (step to +20 mV, repolarization to −50 to 0 mV); conditions: 1 μM; at −30 mV; control 46 ± 6 pA; n = 8
Excerpt: We next wanted to determine whether SSM exerts any effects on INa(R) identified from these cells. The whole-cell experiments on INa(R) were undertaken when each cell was voltage clamped at −80 mV and a brief depolarizing step to +20 mV was delivered to activate transient INa. The INa(R) upon repolarization to various potentials ranging between −50 and 0 mV was thereafter measured at the end of voltage pulses (Figure 4). The effect of SSM on INa(R) was examined at various membrane potentials, and the I-V relationship of INa(R) with or without the addition of SSM was constructed. […]
as §2

[5] = tested on: delayed rectifier K+ currents (IK(DR)) in GH3 cells; assay: Whole-cell patch-clamp of delayed rectifier K+ current (1-sec step depolarization)
Experimental: We next examined whether the presence of SSM is able to modify IK(DR) present in GH3 cells. To achieve this goal, we bathed cells in Ca^2+-free Tyrode’s solution which contained 1 μM TTX, and then filled up the recording electrode by using K^+-containing solution. When cells were exposed to SSM at a concentration of 3 μM, the amplitude of IK(DR) in response to a 1-sec step depolarization was unchanged. It is noted, however, that the IK(DR) amplitudes responding to different levels of depolarizing command steps were decreased by the addition of 10 μM SSM, though the activation time course of IK(DR) evoked by membrane depolarization remained unchanged.
as §1, §2

[6] = amplitude at beginning of pulse, read-out: IC50 for decrease of peak INa
[7] = amplitude at end of pulse, read-out: IC50 for decrease of sustained INa

With `Cc1c(F)c(F)c(COC(=O)[C@@H]2[C@H](/C=C(\Cl)C(F)(F)F)C2(C)C)c(F)c1F` (racemic) [tefluthrin, reference compound] the “Effect on SSM-induced inhibition of peak INa” value [1] was “effective in reversing”.
In the case of `c1cc2c(cc1[C@H]1OC[C@H]3[C@@H]1CO[C@@H]3c1ccc3c(c1)OCO3)OCO2` [SSM, [1S-(1α,3aα,4α,6aα)] -5,5’- (tetrahydro-1H,3H-furo [3–4-c]furan-1,4-diyl)bis-1,3-benzodioxole], the “Effect on peak amplitude of INa” value ([1]; 3 μM) is reported as “produced inhibitory effects”, the “Sustained amplitude of INa” value ([1]; 3 μM, −80 to −10 mV, 40 msec, control 21 ± 2 pA, n = 11) is reported as 12 ± 3 pA and the “Peak amplitude of INa” value ([1]; 3 μM, −80 to −10 mV, 40 msec, control 248 ± 18 pA, n = 11) is reported as 139 ± 11 pA. For the same compound, the “Effect on peak component of INa” value ([1]; 0.1 to 0.3 μM) was “little or no effect”, the “Effect on sustained component of INa” value ([1]; 0.1 to 0.3 μM) was “effectively blocked” and the IC50 [1, 6] was 7.2 µM. The IC50 [1, 7] was 0.6 µM, the Kd ([1]; first-order reaction scheme, open-state block, read-out: Dissociation constant (KD = k−1/k+1*) of INa block) was 930 nM and the “Unblocking (backward) rate constant k−1 of INa block” value ([1]; from intercept of 1/τinact(S) versus [SSM]) was 0.0415 msec^−1. The “Blocking (forward) rate constant k+1* of INa block” value ([1]; from slope of 1/τinact(S) versus [SSM]) was 0.0449 msec^−1μM^−1, the “Peak amplitude of INa after removal of compound” value ([1]; washout after 3 μM, n = 7) was 232 ± 16 pA and the “Sustained amplitude of INa after removal of compound” value ([1]; washout after 3 μM, n = 7) was 19 ± 2 pA. For the same compound, the “Ih amplitude at end of hyperpolarizing step” value ([2]; 10 μM, at −110 mV, control 388 ± 24 pA, n = 9) was 386 ± 26 pA, the IC50 [3] was 4.8 µM and the “INa(R) amplitude” value [4] was 22 ± 5 pA. For the same compound, the “Effect on amplitude of IK(DR)” value ([5]; 3 μM, 1-sec step depolarization) was “unchanged”, the “IK(DR) amplitude” value ([5]; 10 μM, at +40 mV, control 598 ± 34 pA, n = 8) was 454 ± 29 pA and the “Decrease of IK(DR) amplitude” value ([5]; 10 μM, at +40 mV, n = 8) was 23 ± 4%.
In the case of `c1cc2c(cc1O[C@H]1OC[C@H]3[C@@H]1CO[C@@H]3c1ccc3c(c1)OCO3)OCO2` [SesA, 5-[(1S,3aR,4R,6aR)-4-(1,3-benzodioxol-5-yloxy)tetrahydro-1H,3H-furo[3,4-c]furan-1-yl]-1,3-benzodioxole], the “Effect on peak amplitude of INa” value ([1]; 3 μM) is reported as “produced inhibitory effects”, the IC50 [1, 6] is reported as 9.8 µM and the IC50 [1, 7] is reported as 2.5 µM. For the same compound, the “Effect on Ih amplitude” value ([2]; 10 μM) was “minimal effect”.
For `COc1ccc(CCN2CCC[C@H](CN3CCc4cc(OC)c(OC)cc4CC3=O)C2)cc1OC` [cilobradine, reference compound], the “Effect on Ih amplitude” value ([2]; 3 or 10 μM added in continued presence of SSM (10 μM)) was “highly effective at inhibiting”.
In the case of `CCCc1nc2c(C)cc(-c3nc4ccccc4n3C)cc2n1Cc1ccc(-c2ccccc2C(=O)O)cc1` [telmisartan, reference compound], the “Effect on SSM-induced inhibition of peak INa” value [1] is reported as “effective in reversing”.
